According to patent US10543216B2, “Modus of administration of iron, and new formulations adapted for the said goal” (BIOFER S.P.A., priority 2013, dated 2020):

Test system: Pig esophageal epithelium
Assay: in vitro permeation in the Franz cell (model of sublingual absorption)
Conditions: Franz cell, pig esophageal epithelium, 37° C.
Procedure: Sublingual absorption of Fe++ compounds was evaluated by means of in vitro permeation experiments using the Franz cell exemplified in FIG. 1. Pig esophageal epithelium was used as membrane. This experimental model is recognized as valid and reliable in the assessment of sublingual absorption of drugs [I. Diaz Del Consuelo, G. P. Pizzolato, F. Falsom, R. H. Guy, and Y. Jacques.: Evaluation of pig esophageal mucosa as a permeability barrier model for buccosal tissue. J. Pharm. […] Arch. […] Membrane preparation occurred by following the method described here. The esophagi were taken from the animals within one hour after sacrifice. The mucosa was separated from the muscle tissue with a lancet. To separate the epithelium, the mucosa was immersed in distilled water at 60° C. for 2 minutes and then the epithelium was removed from the underlying tissue with the aid of a spatula. The tissues thus prepared were stored at −20° C. until the time of use, when they were thawed to room temperature before being mounted on the vertical diffusion cells of the Franz type, a schematic view of which is shown in FIG. 1. The esophageal epithelium was placed on a regenerated cellulose filter (pore diameter 0.45 μm) with the luminal side facing up, and mounted between the donor and receptor compartments of the Franz cells. […] The exposed surface was 0.6 cm^2. The receptor compartment was filled with approximately 4 ml of physiological solution (0.9% NaCl w/v) and kept under constant magnetic agitation for the entire duration of the experiment. The entire system was thermostat-controlled at 37° C. Sampling of the receptor compartment was performed by drawing 200 μl of receptor solution, which were replaced immediately with an equal volume of fresh physiological solution. The samples were taken at preset time intervals, specifically at 0, 1, 2, 3, 4, 5 and 6 hours.
4 g of powder were suspended in 10 ml of physiological solution and left under agitation for 15 minutes, then the solution was filtered with regenerated cellulose filters (pore diameter 0.45 μm).
6 g of powder were suspended in 10 ml of physiological solution. The suspension was left under magnetic agitation for 25 minutes and then filtered with regenerated cellulose filters (pore diameter 0.45 μm).
7 g of powder were suspended in 6 ml of physiological solution. The suspension was left under magnetic agitation for 1 hour; at the end it was filtered with regenerated cellulose filters (pore diameter 0.45 μm).
An excess of ascorbic acid (2 g) was added to the solution. The suspension was left under magnetic agitation for 30 minutes and after filtration through regenerated cellulose filters (pore diameter 0.45 μm) was used as it was.
4 g of powder were suspended in 10 ml of physiological solution. The suspension was left under magnetic agitation for 15 hours, at the end of which it was filtered with regenerated cellulose filters (pore diameter 0.45 μm).
An excess of powder was suspended in 10 ml of physiological solution. The suspension was left under magnetic agitation for 15 hours, at the end of which it was filtered with regenerated cellulose filters (pore diameter 0.45 μm).

ferric citrate
permeation / absorption through the epithelium (in words): appreciable only at very low pH values
